Results on four compounds are retold here after US8778919B2, “Cyclic anilino—pyridinotriazines” (Janssen Pharmaceutica NV, priority 2005, dated 2014).

SMILES strings stand for the structures.

The target in one assay is CDK5/p35 human (Homo sapiens, UniProt Q00535). Put plainly: Kinase profiling C3.6 CDK5/p35 human. It counts as biochemical. As to conditions: CDK5/p35, test concentration of 10^−6 M. In a few lines:
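Radiometric filter-binding assay: human CDK5/p35 (5-10 mU) with 0.1 mg/ml histone H1 substrate in 8 mM MOPS pH 7.0, 0.2 mM EDTA, 10 mM Mg acetate and [γ-33P]ATP. Incubated 40 min at room temperature, stopped with phosphoric acid. Substrate 33P incorporation counted on P30 filtermat by scintillation.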

Another assay deals with T1, Aurora-A (h) (Homo sapiens, UniProt O14965).
T1 sequence (O14965 1-403): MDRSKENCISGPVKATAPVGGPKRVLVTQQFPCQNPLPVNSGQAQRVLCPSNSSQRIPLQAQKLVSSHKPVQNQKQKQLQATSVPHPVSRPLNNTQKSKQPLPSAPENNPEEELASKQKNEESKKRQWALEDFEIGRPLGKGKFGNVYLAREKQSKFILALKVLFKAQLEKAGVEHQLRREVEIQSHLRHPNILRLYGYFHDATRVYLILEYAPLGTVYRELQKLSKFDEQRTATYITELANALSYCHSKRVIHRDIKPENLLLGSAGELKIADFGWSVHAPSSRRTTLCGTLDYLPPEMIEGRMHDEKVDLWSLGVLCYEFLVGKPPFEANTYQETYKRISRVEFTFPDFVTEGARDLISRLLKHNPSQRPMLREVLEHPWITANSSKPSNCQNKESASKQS
Put plainly: Kinase profiling C3.1 Aurora-A human. The format is biochemical. As to conditions: test concentration of 10^−6 M. Here is the method:
(§1) The in vitro inhibition of a panel of kinases was assessed using either the glass-fiber filter technology as described by Davies, S. P. et al., Biochem J. (2000), 351; p. 95-105. In the glass-fiber filter technology the activity of the kinase of interest is measured using an appropriate substrate that is incubated with the aforementioned kinase protein in the presence of (^33P) radiolabeled ATP. (^33P) Phosporylation of the substrate is subsequently measured as radioactivity bound on a glassfiber-filter.
(§2) All kinases are pre-diluted to a 10× working concentration prior to addition into the assay. The composition of the dilution buffer for each kinase is detailed below.
(§3) All substrates are dissolved and diluted to working stocks in de-ionised water, apart from histone H1 that is stored in 10× working stock in 20 mM MOPS pH 7.4.
In a final reaction volume of 25 μl, Aurora-A (h) (5-10 mU) is incubated with 8 mM MOPS pH 7.0, 0.2 mM EDTA, 200 μM LRRASLG (Kemptide), 10 mM MgAcetate and [γ-^33P-ATP] (specific activity approx. 500 cpm/pmol, concentration as required). The reaction is initiated by the addition of the MgATP mix. After incubation for 40 minutes at room temperature, the reaction is stopped by the addition of 5 μl of a 3% phosphoric acid solution. 10 μl of the reaction is then spotted onto a P30 filtermat and washed three times for 5 minutes in 50 mM phosphoric acid and once in methanol prior to drying and scintillation counting.

For another assay, the target named is cSRC (h) (Homo sapiens, UniProt P12931). Put plainly: Kinase profiling C3.9 cSRC human. As to conditions: test concentration of 10^−6 M. It counts as biochemical. The method, then:
as §1, §2, §3
In a final reaction volume of 25 μl, cSRC (h) (5-10 mU) is incubated with 8 mM MOPS pH 7.0, 0.2 mM EDTA, 250 μM KVEKIGEGTYGVVYK (Cdc2 peptide), 10 mM MgAcetate and [γ-^33P-ATP] (specific activity approx. 500 cpm/pmol, concentration as required). The reaction is initiated by the addition of the MgATP mix. After incubation for 40 minutes at room temperature, the reaction is stopped by the addition of 5 μl of a 3% phosphoric acid solution.
10 μl of the reaction is then spotted onto a P30 filtermat and washed three times for 5 minutes in 75 mM phosphoric acid and once in methanol prior to drying and scintillation counting.

A further assay relates to Chang cells. Briefly: GSK-3 cellular assay (C2): 14C-D-glucose incorporation into glycogen. It counts as cell-based. As to conditions: increase in D-glucose incorporation into glycogen, test concentration of 10^−6 M. In a few lines:
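After 3 days of culture, Chang cells were switched to serum- and glucose-free DMEM and given compound at 10^−6 M plus substrate (3 mM glucose, 0.5 μCi ¹⁴C-D-glucose) for 90 min. Glycogen was isolated by KOH extraction and ethanol precipitation, then scintillation-counted. Scores ran from 1 (10–30% increase in incorporation) to 4 (>80%).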

In a further assay the target is GSK-3β (Homo sapiens, UniProt P49841). Put plainly: GSK-3 kinase assay (C1), GSK-3β. It counts as biochemical. As to conditions: 1 μM ATP, read-out: C1 Score β. In a few lines: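 Radiometric SPA at room temperature in 25 mM Tris pH 7.4 with 10 mM MgCl2, 1 mM DTT, 5.7 ng/μl GSK-3β or 0.25 ng/μl GSK-3α, 5 μM biotinylated CREB peptide and 1 μM ATP plus ^33P-ATP. Stopped after 1 h; IC50 from dose-response versus no-compound control, reported as pIC50 score bands.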
Sequence of GSK-3β (P49841 whole entry, species assumed): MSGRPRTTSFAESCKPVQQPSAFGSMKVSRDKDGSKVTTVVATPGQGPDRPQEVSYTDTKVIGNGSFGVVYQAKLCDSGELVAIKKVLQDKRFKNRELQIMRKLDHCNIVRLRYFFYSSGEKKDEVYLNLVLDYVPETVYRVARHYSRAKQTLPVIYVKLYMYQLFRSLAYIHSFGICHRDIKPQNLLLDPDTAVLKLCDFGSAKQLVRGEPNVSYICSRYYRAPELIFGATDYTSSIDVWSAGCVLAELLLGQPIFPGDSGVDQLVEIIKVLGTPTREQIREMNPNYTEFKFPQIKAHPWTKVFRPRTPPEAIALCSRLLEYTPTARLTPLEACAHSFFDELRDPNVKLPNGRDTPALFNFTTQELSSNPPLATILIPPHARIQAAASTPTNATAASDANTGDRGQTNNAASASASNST

Sequence of CDK5/p35 human (Q00535 whole entry): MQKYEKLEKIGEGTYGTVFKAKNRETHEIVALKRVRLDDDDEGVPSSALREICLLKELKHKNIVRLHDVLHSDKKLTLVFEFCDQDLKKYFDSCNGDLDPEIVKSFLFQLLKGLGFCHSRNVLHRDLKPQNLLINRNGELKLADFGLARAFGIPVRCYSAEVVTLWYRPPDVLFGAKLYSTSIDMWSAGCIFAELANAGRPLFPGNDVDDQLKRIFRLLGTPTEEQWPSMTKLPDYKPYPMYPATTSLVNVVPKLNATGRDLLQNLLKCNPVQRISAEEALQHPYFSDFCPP
Sequence of CDK5/p35 human (Q15078 whole entry partner): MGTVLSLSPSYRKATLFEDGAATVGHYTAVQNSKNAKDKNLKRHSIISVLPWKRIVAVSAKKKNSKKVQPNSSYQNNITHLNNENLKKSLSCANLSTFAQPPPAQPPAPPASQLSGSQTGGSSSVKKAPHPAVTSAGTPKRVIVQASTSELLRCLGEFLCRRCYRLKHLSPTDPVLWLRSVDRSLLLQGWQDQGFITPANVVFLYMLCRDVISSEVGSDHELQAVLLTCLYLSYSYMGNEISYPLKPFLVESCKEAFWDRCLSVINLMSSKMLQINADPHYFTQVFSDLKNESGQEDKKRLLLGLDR
Sequence of cSRC (h) (P12931 whole entry): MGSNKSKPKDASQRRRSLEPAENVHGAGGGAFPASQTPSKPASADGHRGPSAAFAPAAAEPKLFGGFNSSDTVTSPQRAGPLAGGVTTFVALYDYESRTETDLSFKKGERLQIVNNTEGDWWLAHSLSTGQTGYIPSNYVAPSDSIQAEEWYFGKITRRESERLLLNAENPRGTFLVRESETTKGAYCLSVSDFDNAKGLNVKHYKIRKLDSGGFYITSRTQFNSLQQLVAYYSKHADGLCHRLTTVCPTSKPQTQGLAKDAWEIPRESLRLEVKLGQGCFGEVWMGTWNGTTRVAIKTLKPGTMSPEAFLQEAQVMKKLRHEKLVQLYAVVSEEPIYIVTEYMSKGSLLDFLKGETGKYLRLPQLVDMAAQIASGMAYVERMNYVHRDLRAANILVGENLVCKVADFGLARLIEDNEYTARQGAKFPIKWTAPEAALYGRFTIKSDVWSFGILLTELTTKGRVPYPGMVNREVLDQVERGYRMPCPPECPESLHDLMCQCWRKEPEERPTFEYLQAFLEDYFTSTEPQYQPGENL

As for `CN1CC(=O)NCCCc2cc(ccn2)-c2ncnc(n2)Nc2cccc(c2)C1` [Compound 10], the C3.6 score at CDK5/p35 human is reported as 4 (Score 4 = >80% inhibition). In addition, on Aurora-A (h), the C3.1 score is listed as 1 (Score 1 = 10-30% inhibition). Further, the C3.9 score on cSRC (h) is 2 (Score 2 = 30-60% inhibition). Moreover, the “C2 Score” value with Chang cells was 4 (Score 4=>80% increase in D-glucose incorporation). Moreover, the IC50 at GSK-3β is under 10 nM.

`CN1CCCc2cc(ccn2)-c2ncnc(n2)Nc2cccc(c2)CNC(=O)C1` [Compound 7]: on CDK5/p35 human, the C3.6 score is 4 (Score 4 = >80% inhibition). Besides, the C3.1 score at Aurora-A (h) is on record as 1 (Score 1 = 10-30% inhibition). For the same compound, the C3.9 score at cSRC (h) is 2 (Score 2 = 30-60% inhibition). Further, the “C2 Score” value with Chang cells is given as 3 (Score 3=60-80% increase). The IC50 on GSK-3β was under 10 nM.

As to `O=C1CCN2CCN(CC2)Cc2cccc(c2)Nc2ncnc(n2)-c2ccnc(c2)CCCN1` [Compound 35], on CDK5/p35 human, the C3.6 score is given as 4 (Score 4 = >80% inhibition). For the same compound, the C3.1 score at Aurora-A (h) is reported as 1 (Score 1 = 10-30% inhibition). For the same compound, at cSRC (h), the C3.9 score was 2 (Score 2 = 30-60% inhibition). Moreover, the “C2 Score” value in the assay on Chang cells was 4 (Score 4=>80% increase in D-glucose incorporation). On GSK-3β, the IC50 lay within 10 to 100 nM.

As for `CN1CC(=O)NC/C(Cl)=C/c2cc(ccn2)-c2ncnc(n2)Nc2cccc(c2)C1` [Compound 2], the C3.6 score on CDK5/p35 human is given as 4 (Score 4 = >80% inhibition). Also, the C3.1 score at Aurora-A (h) is 2 (Score 2 = 30-60% inhibition). Moreover, the C3.9 score at cSRC (h) was 4 (Score 4 = >80% inhibition). In the assay with Chang cells, the “C2 Score” value is recorded as 4 (Score 4=>80% increase in D-glucose incorporation). For the same compound, the IC50 at GSK-3β was under 10 nM.
